In patent US8450308B2 (Vitae Pharmaceuticals, Inc., priority 2008, dated 2013):
Like-named read-outs stand apart in the source and are kept apart here.

Legend:
[1] = BACE cell assay: soluble Amyloid Beta 1-40 (Aβ 1-40) in culture media of H4-APPsw cells; format: cell-based; conditions: in vitro cell activity, H4-APPsw cells, secreted Aβ 1-40, overnight treatment; read-out: IC50
Method: H4 neuroglioma cell line that stably expresses Amyloid Precursor Protein (APP) containing the KM-NL Swedish mutation (H4-APPsw) was generated. For the assay, cells are treated overnight in the presence of inhibitor and the culture media are subjected to ELISA analysis of soluble Amyloid Beta 1-40 (Aβ 1-40).
H4 neuroglioma cell line was cultured in DMEM with 10% FBS and 1% penicillin/streptomycin (Culture Medium) at 37° C., 5% CO2. […] 24 hrs after transfection, the cells were replaced into three new plates (150 mm) in fresh Culture Medium with 250 ug/ml Zeocin. […] The levels of APPsw expression were analyzed by immunoblotting and the production of Aβ 1-40 was detected by ELISA of culture supernatants. The selected clones are maintained in Culture Medium with 250 μg/ml Zeocin and routinely split in 3-4 days to maintain 20-80% confluence.
Split cells. Split H4-APPsw cells in Culture Medium and culture overnight such that cells will be ˜80% confluent next morning.
Create Compound Dilution Plate. After determining the desired final concentration of compound to be tested, create a 500× dilution plate. Add DMSO, but not inhibitor, to each well of Column 1. […] Add compounds of interest at 500× desired final concentration to wells A3-A10. Add DMSO, but not inhibitor, to each well of Columns 11 and 12. Dilute contents of Row A 1:3 in Row B. then continue through Rows C—H.
Create Media Plate. To create a 2× solution of compound in media, add 996 μL Culture Medium to each well of a 96-well 2 ml deep well plate (Media Plate) in biosafety hood. Add 4 μL 5 mM control compound to Media Plate wells A1-D1 for determination of full inhibition.
Add media to Cell Plate. With a multichannel pipettor, mix each well of Media Plate several times to insure homogeneity. Add 100 μL of mixture to Black polymer bottom P-D-L plates. Next, place Medium Plate and Cell Plate in the incubator.
Add cells to Cell Plate. Trypsinize and count H4-APPsw cells. Dilute cells 6×10^5 cells/ml in Culture Medium and remove Cell Plate from incubator. Vortex cells to homogeneity, then using a multichannel repeating pipettor, add 100 μL cell suspension to Cell Plate, adding cells from Row H to Row A. Place Cell Plate in incubator.
Change media in Cell Plate. After 5 h, check Cell Plate by microscope to insure cells are attached. In culture hood, remove media from Cell Plate using multichannel repeating pipettor. Add 100 μl Culture Medium to each well. Remove Media Plate from incubator and mix with pipettor as previous. Add 100 μl from each well of Media Plate to corresponding well in Cell Plate. Place Cell Plate in incubator overnight.
Perform ELISA to determine levels of secreted Aβ 1-40. After 16 h incubation, spin Cell Plate for 8 min at 1200 rpm. The primary reading of Aβ 1-40 levels is done using PerkinElmer AlphaLISA technology. Follow the manufacturer's protocol for performing AlphaLISA in a white ½ area Optiwell plate using Row 12 for peptide standard (1:2 dilutions, starting at 15 ng/ml). Data are acquired using PerkinElmer Fusion-Alpha FP-HT, Alpha protocol (Count Time 0.6 s, Count Time Ratio 30%:70%).
Export data from Fusion using Columnar Report format into a separate file for each plate. Upload data into Activity Base using RIA-DOSE-RESPONSE protocol (Version 1). Data from at least eight doses were fitted to a four parameter logistical model using XLfit software to determine potency.

[2] = biological target: T1, truncated human beta-secretase (residues 1-458, His6-tagged at the C-terminus) (Homo sapiens, UniProt P56817); assay: BACE fluorescence quench assay; format: biochemical
T1 construct: truncated human beta-secretase (residues 1-458, His6-tagged at the C-terminus); His6 (C); made in house; host or cells: insect cells D. melanogaster S2 (baculovirus expression system (so in the source))

[3] = in vitro enzyme activity, BACE fluorescence assay, pH 4.5, read-out: IC50

T1 sequence (P56817 22-458): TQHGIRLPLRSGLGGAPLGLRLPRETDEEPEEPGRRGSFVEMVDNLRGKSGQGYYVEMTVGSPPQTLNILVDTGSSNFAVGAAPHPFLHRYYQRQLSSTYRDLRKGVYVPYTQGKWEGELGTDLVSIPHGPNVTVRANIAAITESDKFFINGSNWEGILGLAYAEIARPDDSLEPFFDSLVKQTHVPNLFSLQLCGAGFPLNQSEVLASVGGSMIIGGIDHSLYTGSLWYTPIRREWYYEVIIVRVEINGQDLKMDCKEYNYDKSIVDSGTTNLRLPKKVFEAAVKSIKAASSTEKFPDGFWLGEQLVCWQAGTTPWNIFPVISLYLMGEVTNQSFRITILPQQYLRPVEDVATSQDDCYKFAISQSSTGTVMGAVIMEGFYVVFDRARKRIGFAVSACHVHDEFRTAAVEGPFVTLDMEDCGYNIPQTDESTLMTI

Row | Structure (SMILES) | IC50 [1] [nM] | also measured
1 | CN1O[C@]2(C[C@@]3(CCCc4ccccc43)Oc3ccc(-c4cccc(C#N)c4)cc32)N=C1N [Compound 266] | 1000 to 5000 | 
2 | Cc1cccc(-c2ccc3c(c2)C2(CC(C4CCOC(C)(C)C4)O3)N=C(N)N(C)C2=O)c1F (stereo not drawn) [Compound 244] | 100 to 500 | 
3 | CN1C(=O)C2(C[C@H](C3CCCc4ccccc43)Oc3ccc(-c4cccc(C#N)c4)cc32)N=C1N (stereo in doubt) [Compound 188, 3-(2′-amino-1′-methyl-5′-oxo-2-(1,2,3,4-tetrahydronaphthalen-1-yl)-1′,5′-dihydrospiro[chroman-4,4′-imidazole]-6-yl)benzonitrile] | 100 to 500 | 
4 | CN1O[C@@]2(C[C@@H](C3CCCc4ccccc43)Oc3ccc(-c4ccc(F)c(C#N)c4)cc32)N=C1N (stereo partly drawn) [Compound 201] | 1000 to 5000 | 
5 | CN1O[C@@]2(C[C@H](C3CCCc4ccccc43)Oc3ccc(-c4ccc(F)c(C#N)c4)cc32)N=C1N (stereo partly drawn) [Compound 221] | 1000 to 5000 | 
6 | CN1OC2(CC3(CCCc4ccccc4C3)Oc3ccc(-c4ccc(F)c(Cl)c4)cc32)N=C1N (stereo not drawn) [Compound 192] | 500 to 1000 | 
7 | CN1O[C@@]2(C[C@@H]([C@H]3CCOC(C)(C)C3)Oc3ccc(-c4cccc(C#N)c4)cc32)N=C1N [Compound 207] | 100 to 500 | 
8 | CN1C(=O)C2(CC(C3CCOC(C)(C)C3)Oc3ccc(-c4cccc(C(F)(F)F)c4)cc32)N=C1N (stereo not drawn) [Compound 200] | 1 to 100 | 
9 | CN1OC2(CC(C3CCCc4ccccc43)Oc3ccc(-c4cc(F)cc(Cl)c4)cc32)N=C1N (stereo not drawn) [Compound 240] | 5000 to 10000 | 
10 | COc1cccc2c1CCCC1(C2)CC2(N=C(N)N(C)O2)c2cc(-c3cccc(C#N)c3)ccc2O1 (stereo not drawn) [Compound 225] | 500 to 1000 | 
11 | CN1OC2(CC(C3CCOC(C)(C)C3)Oc3ccc(-c4cc(C#N)cc(C(F)(F)F)c4)cc32)N=C1N (stereo not drawn) [Compound 257] | 100 to 500 | 
12 | CN1C(=O)C2(CC(C3CCOC(C)(C)C3)Oc3ccc(-c4cccc(C#N)c4F)cc32)N=C1N (stereo not drawn) [Compound 212] | 1 to 100 | 
13 | CN1O[C@]2(C[C@H]([C@@H]3CCOC(C)(C)C3)Oc3ccc(-c4cccc(C#N)c4)cc32)N=C1N [Compound 211] | 100 to 500 | 
14 | CN1OC2(CC3(CCCc4ccccc4C3)Oc3ccc(C#CC4CC4)cc32)N=C1N (stereo not drawn) [Compound 238] | 1000 to 5000 | 
15 | CN1OC2(CC(C3CCc4ccccc43)Oc3ccc(-c4cccc(C#N)c4)cc32)N=C1N (stereo not drawn) [Compound 226] | 1000 to 5000 | 
16 | CN1OC2(CC3(CCCc4ccccc4C3)Oc3ccc(-c4cc(F)cc(C(F)(F)F)c4)cc32)N=C1N (stereo not drawn) [Compound 242] | 1000 to 5000 | 
17 | CN1C(=O)C2(CC(c3ccccc3)Oc3ccc(-c4cccn4C(=O)OC(C)(C)C)cc32)N=C1N (stereo not drawn) [Compound 70, tert-butyl 2-(2′-amino-1′-methyl-5′-oxo-2-phenyl-1′,5′-dihydrospiro[chroman-4,4′-imidazole]-6-yl)-1H-pyrrole-1-carboxylate] |  | IC50 [2]: 10000 to 50000 nM
18 | CN1OC2(CC(c3ccccn3)Oc3ccc(-c4cccc(C#N)c4)cc32)N=C1N (stereo not drawn) [Compound 106, 3-(3′-amino-2′-methyl-2-(pyridin-2-yl)-2′H-spiro[chroman-4,5′-[1,2,4]oxadiazole]-6-yl)benzonitrile] |  | IC50 [2, 3]: 5000 to 10000 nM
19 | CC(=O)c1cccc(-c2ccc3c(c2)[C@]2(C[C@@]4(CCCOC4)O3)N=C(N)N(C)C2=O)c1 [Compound 427] |  | IC50 [2, 3]: 1000 to 5000 nM
20 | CN1C(=O)[C@@]2(C[C@]3(CCCOC3)Oc3ccc(-c4cc(C#N)ccc4C(F)(F)F)cc32)N=C1N [Compound 380] |  | IC50 [2, 3]: 1000 to 5000 nM
21 | CN1OC2(CC(c3ccccc3)Oc3ccc(Oc4ccccc4)cc32)N=C1N (stereo not drawn) [Compound 108, 2′-methyl-6-phenoxy-2-phenyl-2′H-spiro[chroman-4,5′-[1,2,4]oxadiazol]-3′-amine] |  | IC50 [2, 3]: 10000 to 50000 nM
22 | CC1C2(CCCOC2)Oc2ccc(-c3cccc(C#N)c3)cc2C12N=C(N)N(C)O2 (stereo not drawn) [Compound 111] |  | IC50 [2, 3]: 100 to 500 nM

The next lines start with results.

Row | IC50 [1] [nM] | Structure (SMILES) | also measured
23 | 100 to 500 | CN1C(=O)[C@@]2(C[C@]3(CCCOC3)Oc3ccc(-c4cc(C#N)cc(C#N)c4)cc32)N=C1N [Compound 255] | 
24 | 1 to 100 | CN1C(=O)[C@@]2(C[C@]3(CCCOC3)Oc3ccc(-c4cc(C#N)cc(C(F)(F)F)c4)cc32)N=C1N [Compound 216] | 
25 | 100 to 500 | CN1C(=O)C2(CC(C34CCC(CC3)OC4)Oc3ccc(-c4cccc(C#N)c4)cc32)N=C1N (stereo not drawn) [Compound 206] | 
26 | 1000 to 5000 | COc1cc(Cl)cc(-c2ccc3c(c2)C2(CC4(CCC(C)OC4)O3)N=C(N)N(C)O2)c1 (stereo not drawn) [Compound 274] | 
27 | 1000 to 5000 | CC1CC[C@@]2(CO1)C[C@]1(N=C(N)N(C)O1)c1cc(-c3ccc(F)c(Cl)c3)ccc1O2 (stereo partly drawn) [Compound 249] | 
28 | 500 to 1000 | CN1OC2(CC3(CCCc4ccccc4C3)Oc3ccc(-c4cc(F)cc(C#N)c4)cc32)N=C1N (stereo not drawn) [Compound 186] | 
29 | 1 to 100 | CN1OC2(CC3(CCCc4ccccc4C3)Oc3ccc(-c4cc(C#N)cc(C#N)c4)cc32)N=C1N (stereo not drawn) [Compound 178] | 
30 | 100 to 500 | CN1O[C@]2(C[C@]3(CCCc4ccccc4C3)Oc3ccc(-c4cccc(C#N)c4)cc32)N=C1N [Compound 220] | 
31 | 100 to 500 | CN1C(=O)[C@@]2(C[C@]3(CCCOC3)Oc3ccc(-c4ccc(F)c(Cl)c4)cc32)N=C1N [Compound 233] | 
32 | 1 to 100 | CN1C(=O)[C@@]2(C[C@@H](C3CCOC(C)(C)C3)Oc3ccc(-c4ccc(F)c(Cl)c4)cc32)N=C1N (stereo partly drawn) [Compound 187] | 
33 | 500 to 1000 | C[C@H]1CC[C@]2(CO1)CC1(N=C(N)N(C)O1)c1cc(-c3cccc(C#N)c3)ccc1O2 (stereo partly drawn) [Compound 272, 3-(3″-amino-2″-methyl-4″,5″-dihydro-2″H-spiro(spiro(chroman-2,3′-[(2R,6R/2S,6S)-2,4,5,6-tetrahydro-6-methyl-pyran])-(4R/4S)-4,5″-[1,2,4]oxadiazole)-6-yl)benzonitrile] | 
34 | 1 to 100 | CN1C(=O)C2(CC(C3CCOC(C)(C)C3)Oc3ccc(-c4ccc(F)c(C#N)c4)cc32)N=C1N (stereo not drawn) [Compound 182] | 
35 | 1 to 100 | CN1C(=O)C2(C[C@H](C3CCOC(C)(C)C3)Oc3ccc(-c4cc(F)cc(Cl)c4)cc32)N=C1N (stereo partly drawn) [Compound 190] | 
36 | 1 to 100 | CN1C(=O)[C@@]2(C[C@]3(CCCOC3)Oc3ccc(-c4cc(Cl)cc(C#N)c4)cc32)N=C1N [Compound 203] | 
37 | 100 to 500 | CN1C(=O)[C@@]2(C[C@]3(CCCOC3)Oc3ccc(-c4cccc(C(F)(F)F)c4)cc32)N=C1N [Compound 243] | 
38 | 1 to 100 | CN1C(=O)C2(CC(C3CCOC(C)(C)C3)Oc3ccc(-c4cc(Cl)cc(Cl)c4)cc32)N=C1N (stereo not drawn) [Compound 196] | 
39 | 100 to 500 | CN1C(=O)C2(CC(C3CCCOC3)Oc3ccc(-c4cc(F)cc(F)c4)cc32)N=C1N (stereo not drawn) [Compound 267] | 
40 | 1 to 100 | Cc1ccc(C#N)cc1-c1ccc2c(c1)[C@]1(C[C@H](C3CCOC(C)(C)C3)O2)N=C(N)N(C)C1=O (stereo partly drawn) [Compound 222] | 
41 | 1 to 100 | COc1cc(Cl)cc(-c2ccc3c(c2)C2(CC(C4CCOC(C)(C)C4)O3)N=C(N)N(C)C2=O)c1 (stereo not drawn) [Compound 193] | 
42 | 1000 to 5000 | COc1cc(Cl)cc(-c2ccc3c(c2)C2(CC4(CCCc5ccccc5C4)O3)N=C(N)N(C)O2)c1 (stereo not drawn) [Compound 234] | 
43 | 100 to 500 | CN1OC2(CC3(CCCc4ccccc4C3)Oc3ccc(-c4cc(Cl)cc(C#N)c4)cc32)N=C1N (stereo not drawn) [Compound 191] | 
44 | 500 to 1000 | CN1C(=O)[C@@]2(C[C@@]3(CCCOC3)Oc3ccc(-c4cc(F)cc(Cl)c4)cc32)N=C1N [Compound 270] | 
45 | 100 to 500 | CN1C(=O)C2(C[C@H](C3CCOC(C)(C)C3)Oc3ccc(-c4cc(F)cc(F)c4)cc32)N=C1N (stereo partly drawn) [Compound 231] | 
